Laboratory results as given in ChEMBL document CHEMBL5291721, “A preclinical secondary pharmacology resource illuminates target-adverse drug reaction associations of marketed drugs” (Nat Commun, 2023).

Legend:
[1] = target: Adenosine receptor A2a (Homo sapiens, UniProt P29274)
[2] = target: Beta-1 adrenergic receptor (Homo sapiens, UniProt P08588); type: functional
[3] = target: Vasopressin V1a receptor (Homo sapiens, UniProt P37288)
[4] = target: T1, Muscarinic acetylcholine receptor M2 (Homo sapiens, UniProt P08172); type: functional, cell-based
T1 sequence (P08172 whole entry): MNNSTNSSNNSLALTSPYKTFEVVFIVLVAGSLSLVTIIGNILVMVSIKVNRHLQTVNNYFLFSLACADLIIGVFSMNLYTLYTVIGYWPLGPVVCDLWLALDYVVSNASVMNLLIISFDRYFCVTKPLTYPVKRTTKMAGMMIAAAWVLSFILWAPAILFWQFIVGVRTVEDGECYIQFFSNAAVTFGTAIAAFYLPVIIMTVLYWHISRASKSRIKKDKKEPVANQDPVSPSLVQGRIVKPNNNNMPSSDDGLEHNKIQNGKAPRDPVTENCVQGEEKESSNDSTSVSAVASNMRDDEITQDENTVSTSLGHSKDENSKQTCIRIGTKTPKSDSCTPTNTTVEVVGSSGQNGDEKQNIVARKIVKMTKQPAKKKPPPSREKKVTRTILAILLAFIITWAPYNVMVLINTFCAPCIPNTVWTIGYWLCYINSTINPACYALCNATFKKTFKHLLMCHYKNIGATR

[5] = target: Neuronal acetylcholine receptor subunit alpha-4 (Homo sapiens, UniProt P43681)
[6] = target: Glutamate receptor ionotropic, NMDA 1 (Rattus norvegicus, UniProt P35439)
[7] = target: Histamine H1 receptor (Homo sapiens, UniProt P35367)
[8] = target: 5-hydroxytryptamine receptor 2A (Homo sapiens, UniProt P28223); type: functional, cell-based
[9] = target: T2, 5-hydroxytryptamine receptor 2C (Homo sapiens, UniProt P28335)
T2 sequence (P28335 whole entry): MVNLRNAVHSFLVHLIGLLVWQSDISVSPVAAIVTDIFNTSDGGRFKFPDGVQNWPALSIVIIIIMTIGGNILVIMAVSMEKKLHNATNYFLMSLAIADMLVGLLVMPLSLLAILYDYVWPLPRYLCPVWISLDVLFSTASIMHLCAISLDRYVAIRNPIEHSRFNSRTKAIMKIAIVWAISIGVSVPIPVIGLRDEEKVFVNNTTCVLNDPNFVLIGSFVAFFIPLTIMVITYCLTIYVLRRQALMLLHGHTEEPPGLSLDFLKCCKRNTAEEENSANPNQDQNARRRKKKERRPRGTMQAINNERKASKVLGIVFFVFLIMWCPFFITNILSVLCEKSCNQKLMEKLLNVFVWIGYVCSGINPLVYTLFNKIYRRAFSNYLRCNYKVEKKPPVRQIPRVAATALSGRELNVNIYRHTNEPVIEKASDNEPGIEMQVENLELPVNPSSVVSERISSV

[10] = target: Motilin receptor (Homo sapiens, UniProt O43193)
[11] = target: T3, Neuropeptide Y receptor type 1 (Homo sapiens, UniProt P25929)
T3 sequence (P25929 whole entry): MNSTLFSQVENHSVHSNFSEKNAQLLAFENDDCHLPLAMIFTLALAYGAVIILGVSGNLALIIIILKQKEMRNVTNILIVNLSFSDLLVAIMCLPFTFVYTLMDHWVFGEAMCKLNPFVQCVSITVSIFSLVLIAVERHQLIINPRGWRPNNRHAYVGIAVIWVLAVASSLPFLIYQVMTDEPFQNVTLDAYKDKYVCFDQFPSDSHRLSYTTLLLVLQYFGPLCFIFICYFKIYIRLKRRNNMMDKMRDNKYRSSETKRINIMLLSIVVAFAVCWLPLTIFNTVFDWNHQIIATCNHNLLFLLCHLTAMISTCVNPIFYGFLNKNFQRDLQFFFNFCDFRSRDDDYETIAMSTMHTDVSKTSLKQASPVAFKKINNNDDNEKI

[12] = target: Mu-type opioid receptor (Homo sapiens, UniProt P35372); test: biochemical; type: functional
[13] = target: 3',5'-cyclic-AMP phosphodiesterase 4D (Homo sapiens, UniProt Q08499); type: functional
[14] = target: T4, Prostaglandin G/H synthase 1 (Rattus norvegicus, UniProt Q63921); type: functional
T4 sequence (Q63921 whole entry): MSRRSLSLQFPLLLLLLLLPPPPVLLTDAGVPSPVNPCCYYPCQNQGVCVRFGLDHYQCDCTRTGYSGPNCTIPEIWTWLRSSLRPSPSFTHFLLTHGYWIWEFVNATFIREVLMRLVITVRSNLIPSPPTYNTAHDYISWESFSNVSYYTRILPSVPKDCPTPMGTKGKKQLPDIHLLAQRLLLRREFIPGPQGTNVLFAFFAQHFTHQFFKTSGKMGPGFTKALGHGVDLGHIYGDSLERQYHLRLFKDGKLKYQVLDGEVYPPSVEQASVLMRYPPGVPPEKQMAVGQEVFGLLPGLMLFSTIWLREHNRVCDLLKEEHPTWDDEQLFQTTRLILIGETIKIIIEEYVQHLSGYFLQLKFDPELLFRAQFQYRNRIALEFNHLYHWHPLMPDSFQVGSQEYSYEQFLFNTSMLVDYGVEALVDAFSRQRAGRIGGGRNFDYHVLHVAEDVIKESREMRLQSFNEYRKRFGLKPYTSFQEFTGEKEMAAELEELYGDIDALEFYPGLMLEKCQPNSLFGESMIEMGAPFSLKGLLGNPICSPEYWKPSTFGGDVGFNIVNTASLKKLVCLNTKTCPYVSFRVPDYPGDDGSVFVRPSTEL

[15] = target: Sodium-dependent noradrenaline transporter (Homo sapiens, UniProt P23975)
[16] = target: Sodium-dependent serotonin transporter (Homo sapiens, UniProt P31645)
[17] = target: cGMP-inhibited 3',5'-cyclic phosphodiesterase 3A (Homo sapiens, UniProt Q14432); type: functional
Further: assay procedure not described here.

Sequence of Sodium-dependent noradrenaline transporter (P23975 whole entry): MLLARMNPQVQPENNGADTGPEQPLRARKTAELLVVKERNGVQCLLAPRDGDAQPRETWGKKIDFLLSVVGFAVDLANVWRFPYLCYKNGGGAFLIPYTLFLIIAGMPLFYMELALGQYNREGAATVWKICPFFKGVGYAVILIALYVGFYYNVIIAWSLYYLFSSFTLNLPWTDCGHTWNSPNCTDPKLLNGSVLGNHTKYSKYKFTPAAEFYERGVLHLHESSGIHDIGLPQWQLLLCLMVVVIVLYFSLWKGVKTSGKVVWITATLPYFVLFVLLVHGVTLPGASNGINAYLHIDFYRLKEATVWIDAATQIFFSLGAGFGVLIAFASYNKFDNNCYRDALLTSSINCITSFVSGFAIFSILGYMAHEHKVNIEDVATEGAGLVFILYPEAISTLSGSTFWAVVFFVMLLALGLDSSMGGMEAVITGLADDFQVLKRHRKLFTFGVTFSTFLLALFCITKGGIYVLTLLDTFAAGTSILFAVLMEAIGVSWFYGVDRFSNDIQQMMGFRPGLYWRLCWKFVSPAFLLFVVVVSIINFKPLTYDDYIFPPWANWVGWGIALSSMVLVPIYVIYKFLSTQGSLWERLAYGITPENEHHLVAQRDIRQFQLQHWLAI
Sequence of Beta-1 adrenergic receptor (P08588 whole entry): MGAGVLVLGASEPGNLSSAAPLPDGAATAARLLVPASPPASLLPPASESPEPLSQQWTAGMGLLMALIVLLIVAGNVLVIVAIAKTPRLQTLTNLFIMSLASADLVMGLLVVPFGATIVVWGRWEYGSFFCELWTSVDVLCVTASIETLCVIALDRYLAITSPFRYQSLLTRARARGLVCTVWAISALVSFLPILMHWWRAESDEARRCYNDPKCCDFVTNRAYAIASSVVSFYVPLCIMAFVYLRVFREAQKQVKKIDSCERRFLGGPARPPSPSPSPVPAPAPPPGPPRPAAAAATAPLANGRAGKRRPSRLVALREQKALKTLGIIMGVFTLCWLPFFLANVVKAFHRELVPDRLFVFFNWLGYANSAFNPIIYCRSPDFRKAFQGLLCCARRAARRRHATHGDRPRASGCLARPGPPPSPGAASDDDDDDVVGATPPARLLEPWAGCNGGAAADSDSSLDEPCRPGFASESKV
Sequence of 3',5'-cyclic-AMP phosphodiesterase 4D (Q08499 whole entry): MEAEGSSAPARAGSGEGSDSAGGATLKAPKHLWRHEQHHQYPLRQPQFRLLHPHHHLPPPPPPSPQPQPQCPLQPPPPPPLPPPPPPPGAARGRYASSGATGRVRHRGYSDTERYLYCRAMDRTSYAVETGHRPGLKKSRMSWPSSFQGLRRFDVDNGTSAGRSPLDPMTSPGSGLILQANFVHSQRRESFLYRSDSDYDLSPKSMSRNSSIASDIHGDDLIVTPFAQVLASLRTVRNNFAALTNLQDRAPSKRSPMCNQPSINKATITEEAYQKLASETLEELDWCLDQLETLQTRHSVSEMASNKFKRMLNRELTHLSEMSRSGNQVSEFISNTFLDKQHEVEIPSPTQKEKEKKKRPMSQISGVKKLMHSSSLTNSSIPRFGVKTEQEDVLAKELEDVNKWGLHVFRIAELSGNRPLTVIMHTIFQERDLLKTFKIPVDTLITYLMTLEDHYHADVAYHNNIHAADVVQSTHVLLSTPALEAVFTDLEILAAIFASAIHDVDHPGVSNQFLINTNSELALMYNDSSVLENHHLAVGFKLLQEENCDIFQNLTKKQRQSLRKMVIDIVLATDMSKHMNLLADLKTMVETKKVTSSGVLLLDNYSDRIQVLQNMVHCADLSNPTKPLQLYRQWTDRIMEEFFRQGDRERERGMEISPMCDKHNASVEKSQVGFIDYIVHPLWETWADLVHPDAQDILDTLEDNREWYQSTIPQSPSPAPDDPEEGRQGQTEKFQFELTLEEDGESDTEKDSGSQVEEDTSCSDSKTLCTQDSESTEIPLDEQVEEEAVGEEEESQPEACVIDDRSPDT
Sequence of Motilin receptor (O43193 whole entry): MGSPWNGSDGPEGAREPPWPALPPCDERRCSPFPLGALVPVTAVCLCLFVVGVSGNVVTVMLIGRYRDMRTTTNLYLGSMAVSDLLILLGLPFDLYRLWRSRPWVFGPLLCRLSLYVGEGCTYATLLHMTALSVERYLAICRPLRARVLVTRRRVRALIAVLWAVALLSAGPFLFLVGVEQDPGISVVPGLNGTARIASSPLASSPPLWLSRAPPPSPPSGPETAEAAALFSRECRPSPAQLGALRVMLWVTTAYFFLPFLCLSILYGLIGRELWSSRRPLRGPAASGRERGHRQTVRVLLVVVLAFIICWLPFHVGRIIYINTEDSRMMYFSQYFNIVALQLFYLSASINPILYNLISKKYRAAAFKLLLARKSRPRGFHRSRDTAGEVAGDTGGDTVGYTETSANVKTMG
Sequence of Histamine H1 receptor (P35367 whole entry): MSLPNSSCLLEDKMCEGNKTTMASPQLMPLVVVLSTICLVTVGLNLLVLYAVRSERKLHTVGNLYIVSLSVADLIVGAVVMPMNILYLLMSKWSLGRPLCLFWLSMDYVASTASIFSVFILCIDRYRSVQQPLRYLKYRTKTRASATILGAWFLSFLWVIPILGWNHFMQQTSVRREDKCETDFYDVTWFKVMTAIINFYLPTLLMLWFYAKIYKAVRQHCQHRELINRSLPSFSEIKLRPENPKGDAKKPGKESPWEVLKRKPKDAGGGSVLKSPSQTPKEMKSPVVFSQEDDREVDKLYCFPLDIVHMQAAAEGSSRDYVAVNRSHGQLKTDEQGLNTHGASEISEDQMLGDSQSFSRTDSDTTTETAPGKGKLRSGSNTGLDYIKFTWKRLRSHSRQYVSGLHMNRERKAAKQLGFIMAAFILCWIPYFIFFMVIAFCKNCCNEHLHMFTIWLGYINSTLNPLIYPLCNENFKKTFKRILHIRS
Sequence of Neuronal acetylcholine receptor subunit alpha-4 (P43681 whole entry): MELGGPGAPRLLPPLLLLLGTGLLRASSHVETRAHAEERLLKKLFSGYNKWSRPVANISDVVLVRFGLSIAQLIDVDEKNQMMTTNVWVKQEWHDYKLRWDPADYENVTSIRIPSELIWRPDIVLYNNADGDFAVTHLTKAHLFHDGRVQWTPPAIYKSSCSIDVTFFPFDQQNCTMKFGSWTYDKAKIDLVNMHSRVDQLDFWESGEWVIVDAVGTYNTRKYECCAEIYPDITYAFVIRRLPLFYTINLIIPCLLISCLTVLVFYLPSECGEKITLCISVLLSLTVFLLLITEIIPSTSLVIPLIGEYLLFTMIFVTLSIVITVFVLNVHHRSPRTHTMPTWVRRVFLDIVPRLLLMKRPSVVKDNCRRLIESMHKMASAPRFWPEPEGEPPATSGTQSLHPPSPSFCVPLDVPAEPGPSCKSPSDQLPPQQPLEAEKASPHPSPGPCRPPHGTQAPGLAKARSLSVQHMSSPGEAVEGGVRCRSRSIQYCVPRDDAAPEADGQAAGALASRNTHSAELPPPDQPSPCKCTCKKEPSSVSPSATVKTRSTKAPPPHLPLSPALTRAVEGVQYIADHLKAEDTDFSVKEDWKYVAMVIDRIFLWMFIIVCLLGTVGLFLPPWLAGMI
Sequence of Vasopressin V1a receptor (P37288 whole entry): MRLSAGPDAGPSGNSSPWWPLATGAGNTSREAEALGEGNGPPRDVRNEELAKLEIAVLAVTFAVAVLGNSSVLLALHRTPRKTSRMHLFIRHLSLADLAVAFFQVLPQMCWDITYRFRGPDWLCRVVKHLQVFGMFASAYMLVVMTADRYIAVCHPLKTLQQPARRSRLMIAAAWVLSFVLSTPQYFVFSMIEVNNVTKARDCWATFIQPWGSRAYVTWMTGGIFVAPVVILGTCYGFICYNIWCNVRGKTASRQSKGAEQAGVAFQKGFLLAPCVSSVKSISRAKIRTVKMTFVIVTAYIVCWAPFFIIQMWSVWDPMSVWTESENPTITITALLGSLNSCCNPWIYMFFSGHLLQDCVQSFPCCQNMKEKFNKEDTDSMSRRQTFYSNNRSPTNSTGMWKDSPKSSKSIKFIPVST
Sequence of cGMP-inhibited 3',5'-cyclic phosphodiesterase 3A (Q14432 whole entry): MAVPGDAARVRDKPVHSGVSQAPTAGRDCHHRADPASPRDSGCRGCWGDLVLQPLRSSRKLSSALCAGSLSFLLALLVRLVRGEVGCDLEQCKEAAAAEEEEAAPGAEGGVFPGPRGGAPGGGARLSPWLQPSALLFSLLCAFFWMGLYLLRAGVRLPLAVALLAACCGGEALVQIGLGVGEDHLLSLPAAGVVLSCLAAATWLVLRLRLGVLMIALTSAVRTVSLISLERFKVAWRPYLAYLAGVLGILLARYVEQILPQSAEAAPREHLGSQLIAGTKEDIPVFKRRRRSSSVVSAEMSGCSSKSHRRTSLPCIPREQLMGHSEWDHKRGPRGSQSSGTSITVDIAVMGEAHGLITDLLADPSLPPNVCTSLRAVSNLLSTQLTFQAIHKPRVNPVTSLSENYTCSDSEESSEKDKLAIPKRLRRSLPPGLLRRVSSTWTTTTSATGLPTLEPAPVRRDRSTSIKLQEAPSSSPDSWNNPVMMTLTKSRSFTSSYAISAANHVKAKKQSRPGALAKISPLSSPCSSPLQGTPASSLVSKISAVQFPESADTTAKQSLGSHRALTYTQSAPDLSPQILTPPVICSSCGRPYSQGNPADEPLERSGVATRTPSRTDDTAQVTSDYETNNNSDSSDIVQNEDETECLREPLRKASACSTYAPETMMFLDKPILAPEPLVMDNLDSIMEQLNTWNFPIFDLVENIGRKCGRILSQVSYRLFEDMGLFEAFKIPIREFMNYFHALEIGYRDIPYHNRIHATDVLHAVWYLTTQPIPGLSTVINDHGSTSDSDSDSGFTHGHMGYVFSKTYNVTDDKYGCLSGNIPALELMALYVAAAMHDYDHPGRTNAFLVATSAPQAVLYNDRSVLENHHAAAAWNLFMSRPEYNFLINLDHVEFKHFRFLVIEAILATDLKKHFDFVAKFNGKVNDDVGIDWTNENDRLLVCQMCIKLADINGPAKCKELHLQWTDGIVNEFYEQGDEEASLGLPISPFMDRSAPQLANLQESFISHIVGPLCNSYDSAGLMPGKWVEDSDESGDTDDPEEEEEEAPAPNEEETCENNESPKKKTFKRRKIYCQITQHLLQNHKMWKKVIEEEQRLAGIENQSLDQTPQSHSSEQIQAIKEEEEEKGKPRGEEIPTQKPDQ

Row | SMILES | AC50 [1] [µM] | AC50 [2] [µM] | AC50 [3] [µM] | AC50 [4] [µM] | AC50 [5] [µM] | AC50 [6] [µM] | AC50 [7] [µM] | AC50 [8] [µM] | AC50 [9] [µM] | AC50 [10] [µM] | AC50 [11] [µM] | AC50 [12] [µM] | AC50 [13] [µM] | AC50 [14] [µM] | AC50 [15] [µM] | AC50 [16] [µM] | AC50 [17] [µM]
1 | Nc1nc(/C(=C/CC(=O)O)C(=O)N[C@@H]2C(=O)N3C(C(=O)O)=CCS[C@H]23)cs1 [CEFTIBUTEN] | > 30 | > 30 | > 30 | > 30 | > 30 | > 30 | > 30 | > 30 | > 30 | > 30 | > 30 | > 30 | > 30 | > 30 | > 30 | > 30 | > 30
2 | CO[C@@H]1[C@@H](O[C@@H]2O[C@H](C)[C@@H](O[C@H]3C[C@@](C)(O)[C@@H](OC(=O)CC(C)C)[C@H](C)O3)[C@H](N(C)C)[C@H]2O)[C@@H](CC=O)C[C@@H](C)[C@@H](O)/C=C/C=C/C[C@@H](C)OC(=O)C[C@H]1OC(C)=O [JOSAMYCIN] | > 10 | > 10 | > 10 | > 10 | > 10 | > 10 | > 10 | > 10 | > 30 | > 10 | > 10 | > 30 | > 30 | > 10 | > 10 | > 10 | > 30
3 | CC(=O)OCC(=O)[C@@]12N=C(C)O[C@@H]1C[C@H]1[C@@H]3CCC4=CC(=O)C=C[C@]4(C)[C@H]3[C@@H](O)C[C@@]12C [DEFLAZACORT] | > 30 | > 30 | > 30 | > 30 | > 30 | > 30 | > 30 | > 30 | > 30 | > 30 | > 30 | > 30 | > 30 | > 30 | > 30 | > 30 | > 30
4 | Cc1cc(O)c(C(=O)N[C@@H](C(=O)N[C@@H]2C(=O)N3C(C(=O)O)=C(CSc4nnnn4C)CS[C@H]23)c2ccc(O)cc2)cn1 [CEFPIRAMIDE] | > 30 | > 30 | > 30 | > 30 | > 30 | > 30 | > 30 | > 30 | > 30 | > 30 | > 30 | > 30 | > 30 | > 30 | > 30 | > 30 | > 30
5 | COc1cc2c(N)nc(N3CCN(C(=O)OCC(C)(C)O)CC3)nc2c(OC)c1OC [TRIMAZOSIN] | > 30 | > 30 | > 30 | > 30 | > 30 | > 30 | > 30 | > 30 | > 30 | > 30 | > 30 | > 30 | > 30 | > 30 | > 30 | > 30 | > 30
6 | CC(C)C(=O)c1c(C(C)C)nn2ccccc12 [IBUDILAST] | 17 | > 30 | > 30 | > 30 | > 30 | > 30 | > 30 | > 30 | > 30 | > 30 | > 30 | > 30 | 0.4 | > 30 | > 30 | > 30 | –
7 | COC(=O)[C@H]1[C@H]2C[C@@H]3c4[nH]c5cc(OC)ccc5c4CCN3C[C@H]2C[C@@H](OC(=O)/C=C/c2cc(OC)c(OC)c(OC)c2)[C@@H]1OC [RESCINNAMINE] | > 30 | > 10 | > 10 | > 10 | > 10 | > 10 | > 10 | > 10 | > 30 | > 10 | > 10 | > 30 | > 30 | 11.6 | > 30 | > 30 | > 30
8 | O=C(O)/C=C/c1ccc(Cn2ccnc2)cc1 [OZAGREL] | > 30 | > 30 | > 30 | > 30 | > 30 | > 30 | > 30 | > 30 | > 30 | > 30 | > 30 | > 30 | > 30 | > 30 | – | > 30 | > 30
9 | C#C[C@]1(O)CC[C@H]2[C@@H]3CCc4cc(OC5CCCC5)ccc4[C@H]3CC[C@@]21C [QUINESTROL] | > 10 | > 10 | > 10 | > 10 | > 10 | > 10 | > 10 | > 10 | > 30 | > 10 | > 10 | > 30 | > 30 | > 10 | > 10 | > 10 | > 30
10 | NCC(=O)CCC(=O)O [AMINOLEVULINIC ACID] | > 30 | > 30 | > 30 | > 30 | > 30 | > 30 | > 30 | > 30 | > 30 | > 30 | > 30 | > 30 | > 30 | > 30 | – | > 30 | > 30
11 | O=C(NCCNCC(O)COc1ccc(O)cc1)N1CCOCC1 (stereo not drawn) [XAMOTEROL] | > 30 | – | > 30 | > 30 | > 30 | > 30 | > 30 | > 30 | > 30 | > 30 | > 30 | > 30 | > 30 | > 30 | > 30 | > 30 | > 30
